Reference: US6784184B2, “5-(arylsulfonyl)-,5-(arylsulfinyl), and 5-(arylsulfanyl)-thiazolidine-2,4-diones useful for inhibition of farnesyl-protein transferase” (Wyeth Holdings Corporation, priority 2001, dated 2004)

Assays:
[1] = tested on: K-ras dependent human colon carcinoma (LoVo); experiment: In vivo effects against K-ras dependent human colon carcinoma (LoVo); conditions: Day +35 post tumor cell implantation; 1 mg/kg IP on days 5, 9 and 13; rats
Method: Compounds of this invention were tested for in vivo effects in rats against various tumors. For the compound of Example 114, when tested against a K-ras dependent human colon carcinoma (LoVo), the following results were obtained (Table II): […]

FPTase (K-Ras substrate) = FPTase (K-Ras substrate) (UniProt P29702+P49355); experiment: in vitro FTase Inhibition Assay, K-Ras as substrate for farnesylation; assay type: biochemical; conditions: K-Ras used as substrate for farnesylation
Method: (§1) The ability of the compounds of this invention to inhibit FPTase was evaluated in the standard pharmacological in vitro test procedures described below.
(§2) Methods—1. […] 2. Solution #1 is added to FPTase reaction in a volume of […]. 3. Standard reaction mix, […], contains 50 mM Tris (7.5), […], 3 mM MgCl2, 20 mM KCl, 5 mM DTT, 0.2% octyl-B-glucoside, 1% DMSO, […], 10 ng FPTase, and various concentrations of FPTase inhibitors. 4. Incubate for 30-90 min at […] 5. Stop reactions with TCA/SDS (6%/2%), hold at 4° C. for 45-60 min. 6. Filter by manifold or 96 well plate, wash filter 3-5× with TCA (6%). 7. Add scintillant to filters, measure ^3H-FPP incorporation into Ras protein.
(§3) (cpm from precipitated Ras with test compounds)−(background cpm)×100=% inhibition.
(§4) (cpm from precipitated Ras without test compounds)−(background cpm)

FPTase (H-Ras substrate) = FPTase (H-Ras substrate) (UniProt P29702+P49355); experiment: in vitro FTase Inhibition Assay, H-Ras as substrate for farnesylation; assay type: biochemical; conditions: H-Ras used as substrate for farnesylation
Method: as §1, §2, §3, §4

Molecule | S/T = No. Survivors/No.Treated [1] | IC50 (FPTase (K-Ras substrate)) | IC50 (FPTase (H-Ras substrate))
CC[C@]1(O)C[C@H]2CN(CCc3c([nH]c4ccccc34)[C@@](C(=O)OC)(c3cc4c(cc3OC)N(C=O)[C@H]3[C@@](O)(C(=O)OC)[C@H](OC(C)=O)[C@]5(CC)C=CCN6CC[C@]43[C@@H]65)C2)C1 [Vincristine, reference compound] | 9/10 |  | 
COc1ccc(S(=O)(=O)C2(CCCC#Cc3ccc(OC(F)(F)F)cc3)SC(=O)NC2=O)cc1 (stereo not shown) [Example 154, 5-(4-Methoxybenzenesulfonyl)-5-[5-(4-trifluoromethoxyphenyl)pent-4-ynyl]-thiazolidine-2,4-dione] |  | 1000 to 2500 nM | 70 to 150 nM
O=C1NC(=O)C(CCCC#Cc2cccc([N+](=O)[O-])c2)(S(=O)(=O)c2ccc(Oc3ccccc3)cc2)S1 (stereo not shown) [Example 119, 5-[5-(3-Nitrophenyl)pent-4-ynyl]-5-(4-phenoxybenzenesulfonyl)-thiazolidine-2,4-dione] |  | 1300 to 1700 nM | 130 to 140 nM
Cc1ccc([N+](=O)[O-])cc1C#CCCCC1(S(=O)(=O)c2cccc3ccccc23)SC(=O)NC1=O (stereo not shown) [Example 126, 5-[5-(2-Methyl-5-nitrophenyl)-pent-4-ynyl]-5-(naphthalene-1-sulfonyl)-thiazolidine-2,4-dione] |  | 1700 nM | 90 nM
COc1ccc(S(=O)(=O)C2(CCCC#Cc3cc(NC(=O)OCC(C)C)ccc3C)SC(=O)N(C(=O)OCC(C)C)C2=O)cc1 (stereo not shown) [Example 232, Isobutyl 5-(5-{5-[(isobutoxycarbonyl)-amino]-2-methylphenyl}pent-4-ynyl)-5-[(4-methoxyphenyl)sulfonyl]-2,4-dioxo-1,3-thiazolidine-3-carboxylate] |  | 40 to 640 nM | 5 to 10 nM
Cc1ccc(C(=O)NC(C)(C)C)cc1C#CCCCC1(S(=O)(=O)c2ccc(I)cc2)SC(=O)NC1=O (stereo not shown) [Example 147, N-tert-Butyl-3-{5-[5-(4-iodo-benzenesulfonyl)-2,4-dioxothiazol-idin-5-yl]-pent-1-ynyl}-4-methylbenzamide] |  | 80 to 100 nM | 6.8 to 210 nM
Cc1ccc([N+](=O)[O-])cc1C#CCCCC1(S(=O)(=O)c2ccc(Oc3ccccc3)cc2)SC(=O)NC1=O (stereo not shown) [Example 124] |  | 910 to 1300 nM | 52 to 80 nM
Cc1ccc(Cl)cc1C#CCCCC1(S(=O)(=O)c2ccc(OC(F)(F)F)cc2)SC(=O)NC1=O (stereo not shown) [Example 139, 5-[5-(5-Chloro-2-methylphenyl)pent-4-ynyl]-5-(4-trifluoromethoxybenzene-sulfonyl)thiazolidine-2,4-dione] |  | 600 to 5000 nM | 140 to 170 nM
COc1ccc(S(=O)(=O)C2(CCCC#Cc3cc(NC(=O)OCC(C)(C)C)ccc3C)SC(=O)N(C(=O)OCC(C)(C)C)C2=O)cc1 (stereo not shown) [Example 230, Neopentyl 5-[(4-methoxyphenyl)sulfonyl]-5-[5-(2-methyl-5-{[(neopentyloxy)carbonyl]-amino}phenyl)pent-4-ynyl]-2,4-dioxo-1,3-thiazolidine-3-carboxylate] |  | 20 to 500 nM | 3 to 3.5 nM
Cc1ccc(NC(=O)OC(C)(C)C)cc1C#CCCCC1(S(=O)(=O)c2ccc(I)cc2)SC(=O)NC1=O (stereo not shown) [Example 148, (3-{5-[5-(4-Iodobenzenesulfonyl)-2,4-dioxothiazolidin-5-yl]-pent-1-ynyl}-4-methylphenyl)carbamic Acid tert-Butyl Ester] |  | 23 to 31 nM | 4.5 to 120 nM
COC(=O)c1ccc(C)c(C#CCCCC2(S(=O)(=O)c3ccc(OC)cc3)SC(=O)NC2=O)c1 (stereo not shown) [Example 155, 3-{5-[5-(4-Methoxybenzenesulfonyl)-2,4-dioxo-thiazolidin-5-yl]-pent-1-ynyl}-4-methylbenzoic Acid Methyl Ester] |  | 420 to 440 nM | 10 to 320 nM
COc1cccc(S(=O)(=O)C2(CCCC#Cc3cccs3)SC(=O)NC2=O)c1 (stereo not shown) [Example 164, 5-(3-Methoxybenzenesulfonyl)-5-(5-thiophen-2-yl-pent-4-ynyl)-thiazolidine-2,4-dione] |  | > 10000 nM | 150 nM
Cc1ccc(S(=O)(=O)C2(CCCC#Cc3ccc(C(C)(C)C)cc3)SC(=O)NC2=O)cc1 (stereo not shown) [Example 157, 5-[5-(4-tert-Butylphenyl)pent-4-ynyl]-5-(toluene-4-sulfonyl)-thiazolidine-2,4-dione] |  | 5000 nM | 270 nM
COc1ccc(S(=O)(=O)C2(CCCC#Cc3cc(NC(=O)OCC(C)C)ccc3C)SC(=O)NC2=O)cc1 (stereo not shown) [Example 182, (3-{5-[5-(4-Methoxybenzenesulfonyl)-2,4-dioxothiazolidin-5-yl]pent-1-ynyl}-4-methylphenyl)carbamic Acid Isobutyl] |  | 32 to 56 nM | 5 to 10 nM
COc1ccc(S(=O)(=O)C2(CCCC#Cc3cc(NC(=O)OCc4ccc([N+](=O)[O-])cc4)ccc3C)SC(=O)NC2=O)cc1 (stereo not shown) [Example 176, (3-{5-[5-(4-Methoxybenzenesulfonyl)-2,4-dioxothiazolidin-5-yl]pent-1-ynyl}-4-methylphenyl)carbamic Acid 4-Nitro-Benzyl Ester] |  | 30 to 320 nM | 3.2 to 32 nM
COc1ccc(S(=O)(=O)C2(CCCC#Cc3cc(NC(=O)OC(C)(C)C)ccc3C)SC(=O)NC2=O)cc1 (stereo not shown) [Example 150, (3-{5-[5-(4-Methoxybenzenesulfonyl)-2,4-dioxothiazolidin-5-yl]pent-1-ynyl}-4-methylphenyl)carbamic Acid tert-Butyl Ester] |  | 16 to 68 nM | 7.4 to 32 nM
COc1ccc(S(=O)(=O)C2(CCCC#Cc3ccc([N+](=O)[O-])cc3OC)SC(=O)NC2=O)cc1 (stereo not shown) [Example 132, 5-(4-Methoxybenzenesulfonyl)-5-[5-(2-methoxy-4-nitrophenyl)pent-4-ynyl]-thiazolidine-2,4-dione] |  | 210 to 1000 nM | 41 to 73 nM
O=C1NC(=O)C(CCCC#Cc2cc(Cl)ccc2Cl)(S(=O)(=O)c2ccc(Oc3ccncc3)cc2)S1 (stereo not shown) [Example 116, 5-[5-(2,5-Dichlorophenyl)pent-4-ynyl]-5-[4-(pyridin-4-yloxy)benz-enesulfonyl]-thiazolidine-2,4-dione] |  | 17 to 40 nM | 5 to 10 nM
O=C1NC(=O)C(CCCC#Cc2ccc(Cl)cc2)(S(=O)(=O)c2ccc(OCc3ccccc3)cc2)S1 (stereo not shown) [Example 111, 5-(4-Benzyloxybenzenesulfonyl)-5-[5-(4-chlorophenyl)pent-4-ynyl]-thiazolidine-2,4-dione] |  | 300 to 550 nM | 110 to 150 nM
COc1ccc(S(=O)(=O)C2(CC#Cc3ccc(-c4ccccc4)cc3)SC(=O)NC2=O)cc1 (stereo not shown) [Example 171, 5-(3-Biphenyl-4-yl-prop-2-ynyl)-5-(4-methoxybenzenesulfonyl)-thiazolidine-2,4-dione] |  | 3300 nM | 200 nM
O=C1NC(=O)C(CCCC#Cc2ccc(Cl)cc2)(S(=O)(=O)c2cccc3cccnc23)S1 (stereo not shown) [Example 109, 5-[5-(4-Chlorophenyl)pent-4-ynyl]-5-(quinoline-8-sulfonyl)-thiazolidine-2,4-dione] |  | 1400 to 2100 nM | 65 to 130 nM
COc1ccc(S(=O)(=O)C2(CCCC#Cc3cc(C(=O)NC(C)(C)C)ccc3C)SC(=O)NC2=O)cc1 (stereo not shown) [Example 152, N-tert-Butyl-3-{5-[5-(4-methoxy-benzenesulfonyl)-2,4-dioxothiazol-idin-5-yl]pent-1-ynyl}-4-methyl-benzamide] |  | 100 to 230 nM | 11 to 16 nM
COc1ccc(S(=O)(=O)C2(CCCC#Cc3ccc(C)cc3C)SC(=O)NC2=O)cc1 (stereo not shown) [Example 136, 5-[5-(2,4-Dimethylphenyl)pent-4-ynyl]-5-(4-methoxybenzenesulfonyl)-thiazolidine-2,4-dione] |  | 1000 to 1900 nM | 43 to 50 nM
COc1ccc(S(=O)(=O)C2(CCCC#Cc3cc(NC(=O)OC(C)(C)C)ccc3C)SC(=O)NC2=O)cc1 (single isomer, unassigned; less polar) [Example 222, Enantiomer of(3-{5-[5-(4-Methoxybenzenesulfonyl)-2,4-dioxothiazolidin-5-yl]pent-1-ynyl}-4-methylphenyl)carbamic Acid tert-Butyl Ester (less polar)] |  | 33 nM | 3.3 nM
Cc1ccc(S(=O)(=O)C2(CCCC#Cc3ccc(S(C)(=O)=O)cc3)SC(=O)NC2=O)cc1 (stereo not shown) [Example 159, 5-[5-(4-Methanesulfonylphenyl)-pent-4-ynyl]-5-(toluene-4-sulfonyl)-thiazolidine-2,4-dione] |  | > 10000 nM | 650 nM
COc1ccc(S(=O)(=O)C2(CCCC#Cc3ccc(NC(=O)OC(C)(C)C)cc3)SC(=O)NC2=O)cc1 (stereo not shown) [Example 145, (4-{5-[5-(4-Methoxybenzensulfonyl)-2,4-dioxothiazolidin-5-yl]pent-1-ynyl}phenyl)carbamic Acid tert-Butyl Ester] |  | 5600 to 10000 nM | 1200 to 1700 nM
5-[5-(4-Chloro-2-methylphenyl)-pent-4-ynyl]-5-(4-iodobenzene-sulfonyl)-thiazolidine-2,4-dione [Example 141] |  | 300 to 340 nM | 21 to 32 nM
O=C1NC(=O)C(CCCC#Cc2ccc(Cl)cc2)(S(=O)(=O)c2ccc3ccccc3c2)S1 (stereo not shown) [Example 107, 5-[5-(4-Chlorophenyl)pent-4-ynyl]-5-(naphthalene-2-sulfonyl)-thiazolidine-2,4-dione] |  | 620 to 700 nM | 180 to 200 nM
